Experimental data reported in PMC5619143 (Future Microbiology, 2017).

System: LdtMav2
Test: nitrocefin hydrolysis, absorbance at […] nm, Michaelis-Menten fit
Type: biochemical, Mycobacterium avium
Settings: pH 6.5, 25 °C

With `O=C(Cc1cccs1)N[C@@H]1C(=O)N2C(C(=O)O)=C(/C=C/c3ccc([N+](=O)[O-])cc3[N+](=O)[O-])CS[C@H]12` [nitrocefin] the Km was 75 µM.
